pEC50: −log10 of the molar value. Like-named read-outs stand apart in the source and are kept apart here.
How the values were obtained:
DENV-1 replicon = test: Luciferase reporter replicon-based screening, DENV-1; format: cell-based, DENV-1 (strain WestPac); details: Dengue virus, DENV1, Huh-7, 48 h, read-out: EC50 DENV-1
Description: (§1) Luciferase Reporter Replicon-Based Screening. Huh7 cells containing a luciferase reporter replicon of DENV-1 (strain WestPac), DENV-2 (New Guinea C strain, NGC), DENV-3 (strain D3MY05-34640) and DENV-4 (strain D4MY01-22713) were used in this study. The replicon cells containing the Renilla luciferase and neomycin-resistance genes were generated using a similar strategy as described previously.^55 Briefly, Huh7 DENV-1 to -4 replicon cells were seeded at a density of 10k per well in a 96-well microplate. After incubation at 37° C. with 5% CO2 overnight, the cells were treated with 2-fold serial dilutions of compounds. Experiments were performed in duplicates. After 48 h of incubation, luciferase activities were measured using the EnduRen live-cell substrate (Promega) by following the manufacturer’s instructions. The dose-dependent curve was plotted and EC50 values were calculated using four parameter logistic regression in GraphPad software Prism 8.0.

DENV-2 replicon = test: Luciferase reporter replicon-based screening, DENV-2; format: cell-based, DENV-2 (New Guinea C strain, NGC)
Description: as §1

DENV-3 replicon = test: Luciferase reporter replicon-based screening, DENV-3; format: cell-based, DENV-3 (strain D3MY05-34640)
Description: as §1

DENV-4 replicon = test: Luciferase reporter replicon-based screening, DENV-4; format: cell-based, DENV-4 (strain D4MY01-22713); details: Dengue virus, DENV4, Huh-7, 48 h, read-out: EC50 DENV-4
Description: as §1

[1] = Cytotoxicity assay (CellTiter-Glo); format: cell-based; details: human, Huh7 cells stably expressing DENV-2 replicon
Description: Cytotoxicity Assay. Huh7 cells or Huh7 replicon cells were seeded in a 96-well plate. After incubation at 37° C. with 5% CO2 overnight, the cells were treated with 2-fold serial dilutions of compounds. Experiments were performed in duplicates. After 48 h of incubation, cell viability was measured by adding the CellTiter-Glo reagent (Promega) to each well. The cell viability in 0.45% DMSO-treatment groups was treated at 100%. The cell viability in compound-treated wells was normalized to that of DMSO-treated wells. CC50 values were calculated using four parameter logistic regression in GraphPad software Prism 8.0.

[2] = Dengue virus, DENV2, Huh-7, 48 h, read-out: EC50 DENV-2, Huh7 cells stably expressing DENV-2 replicon, 48 h
[3] = read-out: EC50 DENV-2, Huh7 cells stably expressing DENV-2 replicon, 48 h
[4] = Dengue virus, DENV3, Huh-7, 48 h, read-out: EC50 DENV-3, Huh7 cells stably expressing DENV-3 replicon, 48 h
[5] = read-out: EC50 DENV-3, Huh7 cells stably expressing DENV-3 replicon, 48 h

SMILES | pEC50 (DENV-1 replicon) | pEC50 (DENV-2 replicon; [2]) | pEC50 (DENV-2 replicon; [3]) | pEC50 (DENV-3 replicon; [4]) | pEC50 (DENV-3 replicon; [5]) | pEC50 (DENV-4 replicon) | CC50 at 48 h [1] [nM]
C[C@@H](c1ccc(Cl)cc1)n1nnc2c1NC(=O)C[C@]21C(=O)N(Cc2ccccc2)c2ccc(Cl)cc21 [Compound 24, (R)-1ʹ-Benzyl-5ʹ-chloro-3-((S)-1-(4-chlorophenyl)ethyl)-4,6-dihydrospiro[[1,2,3]triazolo[4,5-b]pyridine-7,3ʹ-indoline]-2ʹ,5(3H)-dione] | 5.70 | 6.54 to 6.85 | 6.82 | 7.29 to 7.70 | 7.70 | < 5.30 | > 10000
C[C@@H](c1ccc(Cl)cc1)n1nnc2c1NC(=O)C[C@]21C(=O)N(Cc2ccc(Cl)cc2)c2ccc(Cl)cc21 [Compound 27, (R)-5'-Chloro-1'-(4-chlorobenzyl)-3-((S)-1-(4-chlorophenyl)ethyl)-4,6-dihydrospiro[[1,2,3]triazolo[4,5-b]pyridine-7,3'-indoline]-2',5(3H)-dione] | 5.66 | 5.48 | – | 6.70 | – | 5.19 | > 10000
C[C@@H](c1ccc(Cl)cc1)n1nnc2c1NC(=O)C[C@]21C(=O)N(Cc2ccc(Cl)c(F)c2)c2ccc(Cl)cc21 [Compound 28, (R)-5'-Chloro-1'-(4-chloro-3-fluorobenzyl)-3-((S)-1-(4-chlorophenyl)ethyl)-4,6-dihydrospiro[[1,2,3]triazolo[4,5-b]pyridine-7,3'-indoline]-2',5(3H)-dione] | 5.82 | 5.40 | – | 6.54 | – | 5.29 | > 10000
COc1cccc(CN2C(=O)[C@]3(CC(=O)Nc4c3nnn4[C@@H](C)c3ccc(Cl)cc3)c3cc(Cl)ccc32)c1 [Compound 29, (R)-5'-Chloro-3-((S)-1-(4-chlorophenyl)ethyl)-1'-(3-methoxybenzyl)-4,6-dihydrospiro[[1,2,3]triazolo[4,5-b]pyridine-7,3'-indoline]-2',5(3H)-dione] | 5.59 | 6.08 | – | 7.06 | – | 5.21 | > 10000
COc1cc(CN2C(=O)[C@]3(CC(=O)Nc4c3nnn4[C@@H](C)c3ccc(Cl)cc3)c3cc(Cl)ccc32)cc(OC)c1 [Compound 30, (R)-5'-Chloro-3-((S)-1-(4-chlorophenyl)ethyl)-1'-(3,5-dimethoxybenzyl)-4,6-dihydrospiro[[1,2,3]triazolo[4,5-b]pyridine-7,3'-indoline]-2',5(3H)-dione] | 5.47 | 5.51 | – | 6.10 | – | 5.13 | > 10000
C[C@@H](c1ccc(Cl)cc1)n1nnc2c1NC(=O)C[C@]21C(=O)N(Cc2cc(C(C)(C)C)cc(C(C)(C)C)c2)c2ccc(Cl)cc21 [Compound 31, (R)-5'-Chloro-3-((S)-1-(4-chlorophenyl)ethyl)-1'-(3,5-di-tert-butylbenzyl)-4,6-dihydrospiro[[1,2,3]triazolo[4,5-b]pyridine-7,3ʹ-indoline]-2',5(3H)-dione] | 5.34 | < 5.00 | – | 5.23 | – | 5.31 | > 10000
C[C@@H](c1ccc(Cl)cc1)n1nnc2c1NC(=O)C[C@]21C(=O)N(CCc2ccccc2)c2ccc(Cl)cc21 [Compound 32, (R)-5'-Chloro-3-((S)-1-(4-chlorophenyl)ethyl)-1'-phenethyl-4,6-dihydrospiro[[1,2,3]triazolo[4,5-b]pyridine-7,3'-indoline]-2',5(3H)-dione] | 5.96 | 6.22 | – | 6.72 | – | < 5.30 | > 10000
C[C@@H](c1ccc(Cl)cc1)n1nnc2c1NC(=O)C[C@]21C(=O)N(Cc2ccccn2)c2ccc(Cl)cc21 [Compound 33, (R)-5'-chloro-3-((S)-1-(4-chlorophenyl)ethyl)-1'-(pyridin-2-ylmethyl)-4,6-dihydrospiro[[1,2,3]triazolo[4,5-b]pyridine-7,3'-indoline]-2',5(3H)-dione] | < 5.30 | 7.70 | – | 8.52 | – | < 5.30 | > 10000
C[C@@H](c1ccc(Cl)cc1)n1nnc2c1NC(=O)C[C@]21C(=O)N(Cc2cccnc2)c2ccc(Cl)cc21 [Compound 34, (R)-5'-Chloro-3-((S)-1-(4-chlorophenyl)ethyl)-1'-(pyridin-3-ylmethyl)-4,6-dihydrospiro[[1,2,3]triazolo[4,5-b]pyridine-7,3'-indoline]-2',5(3H)-dione] | 5.49 | 7.54 | – | 7.68 | – | < 5.30 | > 10000
C[C@@H](c1ccc(Cl)cc1)n1nnc2c1NC(=O)C[C@]21C(=O)N(Cc2ccncc2)c2ccc(Cl)cc21 [Compound 35, (R)-5'-Chloro-3-((S)-1-(4-chlorophenyl)ethyl)-1'-(pyridin-4-ylmethyl)-4,6-dihydrospiro[[1,2,3]triazolo[4,5-b]pyridine-7,3'-indoline]-2',5(3H)-dione] | < 5.30 | 7.14 | – | 7.60 | – | < 5.30 | > 10000
C[C@@H](c1ccc(Cl)cc1)n1nnc2c1NC(=O)C[C@]21C(=O)N(Cc2ccc(Cl)nc2)c2ccc(Cl)cc21 [Compound 36, (R)-5'-Chloro-3-((S)-1-(4-chlorophenyl)ethyl)-1'-((6-chloropyridin-3-yl)methyl)-4,6-dihydrospiro[[1,2,3]triazolo[4,5-b]pyridine-7,3ʹ-indoline]-2',5(3H)-dione] | < 5.30 | 7.11 | – | 8.22 | – | < 5.30 | > 10000
Cc1ccc(CN2C(=O)[C@]3(CC(=O)Nc4c3nnn4[C@@H](C)c3ccc(Cl)cc3)c3cc(Cl)ccc32)cn1 [Compound 37, (R)-5'-Chloro-3-((S)-1-(4-chlorophenyl)ethyl)-1'-((6-methylpyridin-3-yl)methyl)-4,6-dihydrospiro[[1,2,3]triazolo[4,5-b]pyridine-7,3'-indoline]-2',5(3H)-dione] | < 5.30 | 6.82 | – | 7.96 | – | < 5.30 | > 10000
COCCCN1C(=O)[C@]2(CC(=O)Nc3c2nnn3[C@@H](C)c2ccc(Cl)cc2)c2cc(Cl)ccc21 [Compound 39, (R)-5'-Chloro-3-((S)-1-(4-chlorophenyl)ethyl)-1'-(3-methoxypropyl)-4,6-dihydrospiro[[1,2,3]triazolo[4,5-b]pyridine-7,3'-indoline]-2',5(3H)-dione] | < 5.30 | 6.54 to 7.43 | 7.40 | 7.12 to 8.05 | 8.05 | < 5.30 | > 10000
COCCCN1C(=O)C[C@]2(C(=O)Nc3ccc(Cl)cc32)c2nnn([C@@H](C)c3ccc(Cl)cc3)c21 [Compound 40, (R)-5'-Chloro-3-((S)-1-(4-chlorophenyl)ethyl)-4-(3-methoxypropyl)-4,6-dihydrospiro[[1,2,3]triazolo[4,5-b]pyridine-7,3-indoline]-2',5(3H)-dione] | < 5.00 | 5.06 | – | 6.04 | – | < 5.00 | > 10000
C[C@@H](c1ccc(Cl)cc1)n1nnc2c1NC(=O)C[C@]21C(=O)N(CCO)c2ccc(Cl)cc21 [Compound 42, (R)-5'-Chloro-3-((S)-1-(4-chlorophenyl)ethyl)-1'-(2-hydroxyethyl)-4,6-dihydrospiro[[1,2,3]triazolo[4,5-b]pyridine-7,3'-indoline]-2',5(3H)-dione] | < 5.30 | 6.54 to 7.43 | 7.43 | 7.12 to 8.05 | 8.00 | < 5.30 | > 10000
COC(=O)CN1C(=O)C[C@]2(C(=O)Nc3ccc(Cl)cc32)c2nnn([C@@H](C)c3ccc(Cl)cc3)c21 [Compound 44, Methyl 2-((R)-5'-chloro-3-((S)-1-(4-chlorophenyl)ethyl)-2',5-dioxo-5,6-dihydrospiro[[1,2,3]triazolo[4,5-b]pyridine-7,3'-indolin]-4(3H)-yl)acetate] | < 5.00 | < 5.00 | – | 5.57 | – | < 5.00 | > 10000
C[C@@H](c1ccc(Cl)cc1)n1nnc2c1NC(=O)C[C@]21C(=O)N(CCF)c2ccc(Cl)cc21 [Compound 46, (R)-5'-Chloro-3-((S)-1-(4-chlorophenyl)ethyl)-1'-(2-fluoroethyl)-4,6-dihydrospiro[[1,2,3]triazolo[4,5-b]pyridine-7,3'-indoline]-2',5(3H)-dione] | < 5.30 | 6.54 to 7.43 | 7.42 | 7.12 to 8.05 | 8.05 | < 5.30 | > 10000
